The source of these data is patent US20070128217A1 (priority 2003, published 2007).

Experiment [1] deals with antibodies in sera from SARS patients (sera 1a, 1b, 2, 6, 37, 62, London, SARS-yellow, SARS-green). In kind it is binding, human. On the set-up: Binding of serum 6 to linear peptides of protein X1 of SARS-CoV Urbani / Binding of serum 37 to linear peptides of protein X1 of SARS-CoV Urbani / Binding of serum 6 to looped/cyclic peptide (PEPSCAN-ELISA) / Binding of serum 37 to looped/cyclic peptide (PEPSCAN-ELISA) / Binding of serum 37 to looped/cyclic peptides of protein X1 of SARS-CoV Urbani / Binding of serum 6 to linear peptides of protein X2 / Binding of serum 37 to linear peptides of protein X2 / Binding of serum 37 to looped/cyclic peptides of protein X2 of SARS-CoV Urbani / Binding of serum 6 to linear peptides of protein M of SARS-CoV Urbani / Binding of serum 37 to linear peptides of protein M of SARS-CoV Urbani / Binding of serum 6 to looped/cyclic peptides of protein M of SARS-CoV Urbani / Binding of serum 37 to looped/cyclic peptides of protein M of SARS-CoV Urbani / Binding of serum 6 to linear peptides of protein X3 of SARS-CoV Urbani / Binding of serum 37 to linear peptides of protein X3 of SARS-CoV Urbani / Binding of serum 37 to looped/cyclic peptides of protein X3 of SARS-CoV Urbani / Binding of serum 6 to linear peptides of protein X4 of SARS-CoV Urbani / Binding of serum 37 to linear peptides of protein X4 of SARS-CoV Urbani / Binding of serum 37 to looped/cyclic peptides of protein X4 of SARS-CoV Urbani / Binding of serum 6 to linear peptides of protein X5 of SARS-CoV Urbani / Binding of serum 37 to linear peptides of protein X5 of SARS-CoV Urbani / Binding of serum 37 to looped/cyclic peptides of protein X5 of SARS-CoV Urbani / Binding of serum 6 to linear peptides of protein N of SARS-CoV Urbani / Binding of serum 37 to linear peptides of protein N of SARS-CoV Urbani / Binding of serum 6 to linear peptide (PEPSCAN-ELISA) / Binding of serum 1a to looped/cyclic peptides of protein N of SARS-CoV Urbani / Binding of serum 1b to looped/cyclic peptides of protein N of SARS-CoV Urbani / Binding of serum 2 to looped/cyclic peptides of protein N of SARS-CoV Urbani / Binding of serum 6 to looped/cyclic peptides of protein N of SARS-CoV Urbani / Binding of serum 37 to looped/cyclic peptides of protein N of SARS-CoV Urbani / Binding of serum 62 to looped/cyclic peptides of protein N of SARS-CoV Urbani / Binding of serum London to looped/cyclic peptides of protein N of SARS-CoV Urbani / Binding of serum SARS-green to looped/cyclic peptides of protein N of SARS-CoV Urbani: unit not given here.

For experiment [2], the system named is control sera (pooled serum of ten healthy LUMC hospital workers; commercial negative donor pooled serum from the Dutch bloodbank). In kind it is binding, human. On the set-up: Binding of Control serum LUMC to linear peptides / Binding of Control serum Blood-bank to linear peptides / Binding of Control serum LUMC to looped peptides / Binding of Control Serum Blood-Bank to Looped peptides / Binding of Control serum LUMC to linear peptides of the protein M of SARS-CoV Urbani / Binding of Control serum Blood-bank to linear peptides of the protein M of SARS-CoV Urbani / Binding of Control serum LUMC to looped peptides of the protein M of SARS-CoV Urbani / Binding of Control Serum Blood-Bank to Looped peptides of the protein M of SARS-CoV Urbani: unit not given here.

For experiment [3], the system named is rabbit serum obtained by immunizing a rabbit with the SARS-CoV strain Frankfurt 1. The class given is binding. On the set-up: Binding of a rabbit serum to linear peptides / Binding of a rabbit serum to looped peptides / Rabbit serum linear peptides / Rabbit serum looped peptides / Binding of a rabbit serum to linear peptides of protein N of SARS-CoV Urbani (Rabbit serum linear peptides) / Binding of a rabbit serum to looped/cyclic peptides of protein N of SARS-CoV Urbani (Rabbit serum looped peptides): unit not given here.

In the case of QITTDTGIENATFFI, in experiment [1], the “Binding of serum 1a to linear peptides of protein X1 of SARS-CoV Urbani” value turned out to be 0.7, the “Binding of serum 1a to looped/cyclic peptides of protein X1 of SARS-CoV Urbani” value was determined as 0.7, the “Binding of serum 1b to linear peptides of protein X1 of SARS-CoV Urbani” value stood at 0.6 and the “Binding of serum 1b to looped/cyclic peptides of protein X1 of SARS-CoV Urbani” value is reported as 0.7. In experiment [1], the “Binding of serum 2 to linear peptides of protein X1 of SARS-CoV Urbani” value is on record as 0.4, the “Binding of serum 2 to looped/cyclic peptides of protein X1 of SARS-CoV Urbani” value turned out to be 0.6, the “Binding of serum 6 to linear peptides of protein X1 of SARS-CoV Urbani” value is on record as 0.4 and the “Binding of serum 6 to looped/cyclic peptides of protein X1 of SARS-CoV Urbani” value worked out at 0.5. In experiment [1], the “Binding of serum 37 to linear peptides of protein X1 of SARS-CoV Urbani” value turned out to be 0.6, the “Binding of serum 37 to looped/cyclic peptides of protein X1 of SARS-CoV Urbani” value was found to be 1.0, the “Binding of serum 62 to linear peptides of protein X1 of SARS-CoV Urbani” value was 0.4 and the “Binding of serum 62 to looped/cyclic peptides of protein X1 of SARS-CoV Urbani” value is on record as 0.9. In experiment [1], the “Binding of serum London to linear peptides of protein X1 of SARS-CoV Urbani” value was determined as 0.3, the “Binding of serum London to looped/cyclic peptides of protein X1 of SARS-CoV Urbani” value is listed as 0.3, the “Binding of serum SARS-green to linear peptides of protein X1 of SARS-CoV Urbani” value is given as 0.3 and the “Binding of serum SARS-green to looped/cyclic peptides of protein X1 of SARS-CoV Urbani” value turned out to be 0.5. For the same sequence, in experiment [1], the “Binding of serum SARS-yellow to linear peptides of protein X1 of SARS-CoV Urbani” value came out at 0.3 and the “Binding of serum SARS-yellow to looped/cyclic peptides of protein X1 of SARS-CoV Urbani” value came to 0.5. Moreover, in experiment [2], the “Binding of Control Serum Blood-Bank to Looped peptides” value amounted to 0.5, the “Binding of Control serum Blood-bank to linear peptides” value was determined as 0.5, the “Binding of Control serum LUMC to linear peptides” value was 0.6 and the “Binding of Control serum LUMC to looped peptides” value is given as 0.8. In experiment [3], the “Binding of a rabbit serum to linear peptides” value came out at 0.1 and the “Binding of a rabbit serum to looped peptides” value worked out at 1.5.
For QLESTQITTDTGIEN, in experiment [1], the “Binding of serum 1a to linear peptides of protein X1 of SARS-CoV Urbani” value was 0.6, the “Binding of serum 1a to looped/cyclic peptides of protein X1 of SARS-CoV Urbani” value amounted to 0.4, the “Binding of serum 1b to linear peptides of protein X1 of SARS-CoV Urbani” value is recorded as 0.5 and the “Binding of serum 1b to looped/cyclic peptides of protein X1 of SARS-CoV Urbani” value stood at 0.3. Moreover, in experiment [1], the “Binding of serum 2 to linear peptides of protein X1 of SARS-CoV Urbani” value stood at 0.4, the “Binding of serum 2 to looped/cyclic peptides of protein X1 of SARS-CoV Urbani” value came to 0.3, the “Binding of serum 6 to linear peptides of protein X1 of SARS-CoV Urbani” value stood at 0.4 and the “Binding of serum 6 to looped/cyclic peptides of protein X1 of SARS-CoV Urbani” value was found to be 0.2. In experiment [1], the “Binding of serum 37 to linear peptides of protein X1 of SARS-CoV Urbani” value is recorded as 0.5, the “Binding of serum 37 to looped/cyclic peptides of protein X1 of SARS-CoV Urbani” value is 0.5, the “Binding of serum 62 to linear peptides of protein X1 of SARS-CoV Urbani” value is listed as 0.5 and the “Binding of serum 62 to looped/cyclic peptides of protein X1 of SARS-CoV Urbani” value is 0.5. Further, in experiment [1], the “Binding of serum London to linear peptides of protein X1 of SARS-CoV Urbani” value amounted to 0.3, the “Binding of serum London to looped/cyclic peptides of protein X1 of SARS-CoV Urbani” value was 0.2, the “Binding of serum SARS-green to linear peptides of protein X1 of SARS-CoV Urbani” value is 0.2 and the “Binding of serum SARS-green to looped/cyclic peptides of protein X1 of SARS-CoV Urbani” value amounted to 0.4. In experiment [1], the “Binding of serum SARS-yellow to linear peptides of protein X1 of SARS-CoV Urbani” value amounted to 0.4 and the “Binding of serum SARS-yellow to looped/cyclic peptides of protein X1 of SARS-CoV Urbani” value stood at 0.4. Besides, in experiment [2], the “Binding of Control Serum Blood-Bank to Looped peptides” value came to 0.5, the “Binding of Control serum Blood-bank to linear peptides” value turned out to be 0.3, the “Binding of Control serum LUMC to linear peptides” value is 0.5 and the “Binding of Control serum LUMC to looped peptides” value worked out at 0.5. Besides, in experiment [3], the “Binding of a rabbit serum to linear peptides” value came out at 0.1 and the “Binding of a rabbit serum to looped peptides” value is reported as 0.6.
